How the values were obtained:
Experiment in all cases: relative viability (nuclei count vs DMSO), 5 days (fraction); higher = more cells survive
[1] = compound: CC1=C(C(=O)N2C=CSC2=N1)CCN3CCC(=C(C4=CC=CC=C4)C5=CC=C(C=C5)F)CC3 + CC(C)C[C@H](NC(=O)[C@H](Cc1ccccc1)NC(=O)c1cnccn1)B(O)O [Bortezomib] (partner 0.002 µM)
Procedure, shortened: (§1)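 Five library-drug doses in √10 steps were combined with a fixed anchor-drug dose, or a single drug was given alone, by pin tool to lung cancer cell lines in 1536-well plates the day after seeding. Nuclei were stained and counted after 5 days. Relative viability is the nuclei count in treated wells over that in vehicle wells, taken as the median of duplicate plates.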

[2] = compound: CC1=C(C(=O)N2C=CSC2=N1)CCN3CCC(=C(C4=CC=CC=C4)C5=CC=C(C=C5)F)CC3 + CS(=O)(=O)N1CCN(Cc2cc3nc(-c4cccc5[nH]ncc45)nc(N4CCOCC4)c3s2)CC1 [Pictilisib] (partner 1 µM)
Procedure, shortened: as §1

[3] = compound: CC1=C(C(=O)N2C=CSC2=N1)CCN3CCC(=C(C4=CC=CC=C4)C5=CC=C(C=C5)F)CC3 + O=C(c1cc(Cc2n[nH]c(=O)c3ccccc23)ccc1F)N1CCN(C(=O)C2CC2)CC1 [Olaparib] (partner 8 µM)
Procedure, shortened: as §1

[4] = compound: CC1=C(C(=O)N2C=CSC2=N1)CCN3CCC(=C(C4=CC=CC=C4)C5=CC=C(C=C5)F)CC3 + CC(=O)Nc1cccc(-n2c(=O)n(C3CC3)c(=O)c3c(Nc4ccc(I)cc4F)n(C)c(=O)c(C)c32)c1 [Trametinib] (partner 0.02 µM)
Procedure, shortened: as §1

Cell Line | relative viability ([1]; first compound 0.08 µM) | relative viability ([1]; first compound 0.253 µM) | relative viability ([1]; first compound 0.8 µM) | relative viability ([1]; first compound 2.53 µM) | relative viability ([1]; first compound 8 µM) | relative viability ([2]; first compound 0.08 µM) | relative viability ([2]; first compound 0.253 µM) | relative viability ([2]; first compound 0.8 µM) | relative viability ([2]; first compound 2.53 µM) | relative viability ([2]; first compound 8 µM) | relative viability ([3]; first compound 0.08 µM) | relative viability ([3]; first compound 0.253 µM) | relative viability ([3]; first compound 0.8 µM) | relative viability ([3]; first compound 2.53 µM) | relative viability ([3]; first compound 8 µM) | relative viability ([4]; first compound 0.08 µM) | relative viability ([4]; first compound 0.253 µM) | relative viability ([4]; first compound 0.8 µM) | relative viability ([4]; first compound 2.53 µM) | relative viability ([4]; first compound 8 µM)
201T | 1.16 | 1.12 | 1.08 | 1.16 | 1.13 | 0.647 | 0.779 | 0.632 | 0.712 | 0.808 | 0.941 | 0.791 | 0.824 | 0.92 | 0.884 | 0.7 | 0.749 | 0.709 | 0.75 | 0.722
A549 |  |  |  |  |  | 0.643 | 0.434 | 0.467 | 0.567 | 0.422 |  | 0.212 | 0.385 | 0.36 | 0.151 |  |  |  |  | 
A-427 | 1.07 | 1.08 | 0.984 | 1.03 | 0.834 | 0.801 | 0.86 | 0.676 | 0.83 | 0.737 | 0.779 | 0.74 | 0.723 | 0.803 | 0.658 | 0.762 | 0.686 | 0.712 | 0.818 | 0.681
ABC-1 | 0.313 | 0.297 | 0.252 | 0.244 | 0.269 | 0.817 | 0.973 | 0.827 | 0.684 | 0.483 | 0.836 |  | 0.99 | 1.01 | 0.536 |  |  |  |  | 
BEN | 0.76 | 0.757 | 0.864 | 0.828 | 0.534 | 0.521 | 0.602 | 0.562 | 0.516 | 0.505 | 1.07 | 1.22 | 1.09 | 1.06 | 0.89 | 0.798 | 1.13 | 1.06 | 1.16 | 0.944
CAL-12T |  | 0.745 | 0.843 | 1.03 | 0.733 |  | 0.445 | 0.411 | 0.42 | 0.387 | 0.724 | 0.718 | 0.79 | 0.763 | 0.6 | 0.262 | 0.281 | 0.267 | 0.338 | 0.3
COR-L23 | 0.701 | 0.74 | 1.02 | 1.18 | 0.397 | 0.775 | 0.595 | 0.945 | 0.69 | 0.52 | 0.311 | 0.32 | 0.344 | 0.376 | 0.31 | 0.748 | 0.612 | 0.5 | 0.731 | 0.372
COR-L 105 | 0.83 | 0.691 | 0.75 | 0.919 | 0.568 | 0.349 | 0.392 | 0.376 | 0.436 | 0.403 | 0.542 | 0.718 | 0.633 | 0.753 | 0.609 | 0.417 | 0.459 | 0.405 | 0.495 | 0.43
Calu-6 | 1.05 | 1.14 | 0.933 | 1.02 | 0.767 | 0.937 | 0.847 | 0.915 | 1.2 | 0.54 | 0.475 | 0.602 | 0.642 | 0.573 | 0.462 |  |  |  |  | 

Source: the supplement of paper PMC10307832
